According to article PMC9120013, “Ribosome inhibition by C9ORF72-ALS/FTD-associated poly-PR and poly-GR proteins revealed by cryo-EM” (Nature Communications, 2022):

Legend:
[1] = test system: ribosomes on endogenous globin mRNAs in RRL; assay: Polysome profiling of RRL translating endogenous mRNA; assay type: biochemical, rabbit; settings: 4 μM PR20, 4 μM GR20, 1 mM GDPCP; 5 min
Protocol: Polysome profiles were obtained using RRL untreated with nuclease, so that it contained endogenous mRNA. 100 μl reactions containing 50% RRL (Green Hectare) 30 μM hemin (Sigma), 75 mM KCl, 0.5 mM MgCl2, 1 mM ATP, 0.2 mM GTP, 2.1 mg/ml creatine phosphate, 30 μM of L-amino acid mix, 15 mg/ml yeast tRNA, 6 mM BME and, when appropriate, translation inhibitors (4 μM PR20, 4 μM GR20, cycloheximide, 40 μM harringtonine, or 1 mM GDPCP with 1 mM MgCl2) were assembled on ice. To start translation, the reactions were warmed in a heat block at either 30 °C or 37 °C as noted. After 5 min, reactions were terminated by addition of 100 μl of ice-cold Stop Buffer (50 mM Hepes-KOH pH 7.4, 150 mM KOAc, 10 mM Mg(OAc)2, and 200 μg/ml cycloheximide). The stopped reactions were applied to 10–50% sucrose gradients in Gradient Buffer (50 mM Hepes-KOH pH 7.4, 150 mM KOAc, 10 mM Mg(OAc)2, 2 mM DTT, and 100 μg/ml cycloheximide) and spun in an SW-41 rotor (Beckman Coulter) at 197,568xg (avg) for 2 h at 4 °C. Gradients were pumped on a Gradient Station (BioComp Instruments) at a pump rate of 0.29 mm/min and the absorbance at 254 nm was measured by an Econo UV monitor (Biorad) zeroed with 10% sucrose-gradient buffer. The traces were output as CSV files and imported into GraphPad Prism, where the 80S peaks were aligned. Controls were highly reproducible day-to-day. Each experimental condition is shown compared to concurrent, uninhibited control.

[2] = test system: ribosomes on endogenous beta-globin mRNA in RRL; assay: Toeprinting of 80S and 4-5-mer polysome fractions on beta-globin mRNA; assay type: biochemical, rabbit; settings: for normalized ratio START to CDS, MEAN: 4-5-mer, primer B, mean of ten 20 bp windows
Protocol: Toeprinting analyses were carried out similarly to those in refs. [51],[74], using 80S and polysome (4–5-some) fractions collected from polysome profiles as described in “Polysome Profiles” except that reactions were doubled in size (200 μL), performed at 37 °C, and were stopped with ice-cold 1xAMV Buffer (50 mM Tris-HCl pH 8.3, 50 mM KCl, 5 mM MgCl2) with 200 μg/ml cycloheximide before being separated on at 10–35% sucrose gradient in 1xAMV buffer with 0.5 mM spermidine and 1 mM DTT. 600 μl of each fraction (80S or 4–5-mer) was supplemented with 10 mM DTT. Then 10 U of AMV reverse transcriptase (Promega), 120 nmol dNTPs, and 120 pmol of a 5'[6-carboxyfluorescein (FAM)]-labeled primer (IDT-DNA) were added. Two primers specific to the endogenous beta-globin mRNA in RRL were used in separate reactions: 5′-(FAM)-GGACTCGAAGAACCTCTG (as in ref. [74]) annealed 136 nucleotides downstream of the AUG or 5′-(FAM)-[…] annealed to the end of the 3'-UTR. Primers were extended at 37 °C for 30 min, and then the reaction were extracted in 1:1 phenol:chloroform, supplemented with 1/10 volume of 3 M sodium acetate pH 5.2, and precipitated with 2.5 volumes of 100% ethanol. Pellets were resuspended in 10 μl of deionized formamide (Applied Biosystems) with 1/20 volume of a 35-500 nucleotide orange-dye labeled DNA size standard (MCLab) and loaded onto a 96-well plate. The samples were sent for fragment analysis by capillary electrophoresis to the UMass Chan Medical School Molecular Biology Core Laboratory using an ABI3730XL DNA Fragment Analyzer with capillaries loaded with POP-7 polymer and with an injection voltage of 12.5 kV. Data collection was performed with GeneMapper software (ABI). Data were exported as.fsa files and were analyzed (aligning to ladder and background correction) in GeneMarker 3.0.1 software (SoftGenetics) running in demo mode. Screen captures of traces were taken and traces were integrated using the “Quantification” feature and manually adjusting sliders to include the desired nucleotide range.

[3] = test system: translation in E. coli cell lysates; assay: Nanoluciferase translation in E. coli cell lysate (NEBExpress); assay type: biochemical; settings: 1 μl of 200 μM stock in 10-μl reaction
Protocol: E. coli cell lysates (NEBExpress, NEB) were used to investigate bacterial translation inhibition by GR20 and PR20. We monitored the translation of an in vitro transcribed mRNA encoding a Shine-Dalgarno sequence preceding the nanoluciferase (Promega) open reading frame. The mRNA was prepared by in vitro transcription of a PCR-template obtained by amplifying the nanoluciferase open reading frame from the plasmid described in reference with the following primers: T7 + SD-forward: […], based on the pet28a+ plasmid and reverse: […]. […] Then 1 μl of water or different concentrations (10-100 μM) of PR20 or GR20 or 200 μM erythromycin were added and the plate was incubated at 37 °C for 5 min inside of an Infinite m1000 pro microplate reader (Tecan). Next, the nanoluciferase mRNA was added to the final concentration of 20 ng/μl in a 10-μl reaction. Translation reactions were incubated at 37 °C for 20 min, luminescence of the samples was continuously measured by the microplate reader to record the time course of protein synthesis. Time progress curves, obtained in the experiments, were processed in MS Excel, and the rate of change of the relative light units between 100 and 200 s was measured, the mean and SEM of three experiments is reported in column graph in Supplementary Fig. 2a.

E. coli 70S ribosomes = assay: Erythromycin competition in the puromycin assay on 70S ribosomes; assay type: biochemical; settings: for fMet-puromycin formed: 20 μM erythromycin and/or 2 μM PR20, 30 nM 70S, quenched at 300 s
Protocol: The assay was performed as described above for the puromycin kinetics, except that the 70S ribosomes were pre-incubated with 22 μM erythromycin for 5 min prior to adding PR20. The stock solution of erythromycin contained 2 mM erythromycin in ethanol, so the control reaction (70S with no erythromycin) and the reactions with erythromycin were prepared to contain the same amount of ethanol (1%). The final concentrations after addition of puromycin were: 30 nM 70S, 66 nM [^35S]-fMet-tRNA^fMet, 1 μM mRNA, 2 μM PR20 (no PR20 in the control reaction), 20 μM erythromycin (or no erythromycin in a control reaction), 50 µM puromycin (in 20 mM Tris-acetate (pH 7.0), 100 mM NH4OAc, 12 mM Mg(OAc)2 and 1% ethanol). Samples were quenched at 300 s when the uninhibited reaction had reached a plateau.

[4] = even at 100 µM; cited from earlier work
Text: (§1) This work uncovers how the toxic arginine-containing DPR proteins associated with C9ORF72-ALS/FTD inhibit translation. […] Poly-PR and poly-GR binding to large subunits and assembled 80S ribosomes would compete with the binding of initiator Met-tRNA or elongator tRNAs, and strongly interfere with peptidyl transfer, consistent with transl ...

translation = settings: even at 100 µM; cited from earlier work
Text: as §1

[5] = biological target: Escherichia coli 70S ribosome (E. coli)
[6] = biological target: Oryctolagus cuniculus (rabbit) 80S ribosome (rabbit (Oryctolagus cuniculus)) (UniProt G1SVW5)
[7] = biological target: Oryctolagus cuniculus (rabbit) 80S ribosome (rabbit (Oryctolagus cuniculus)) (UniProt G1SVW5); remark: listed apart in the source

Q: Which results are given for `Nc1nc2c(ncn2[C@@H]2O[C@H](COP(=O)(O)OP(=O)(O)CP(=O)(O)O)[C@@H](O)[C@H]2O)c(=O)[nH]1` [GDPCP]?
A: polysome profile, half-mer peaks [1]: increase in half-mer peaks; site of ribosome accumulation, toe-printing of polysome fractions [2]: accumulate within the open reading frame; Ratio (START to CDS) ([2]; 80S fraction, primer A, Fig. 2f independent repeat): 1.314; Normalized ratio START/ORF ([2]; 80S fraction, primer A, Fig. 2f independent repeat, no inhibitor = 1): 0.4872; normalized ratio START to CDS, MEAN ([2]; Fig. 2g): 0.7887; normalized ratio START to CDS, MEAN ([2]; Fig. 2h independent repeat): 0.4286

Q: With `CC[C@H]1OC(=O)[C@H](C)[C@@H](O[C@H]2C[C@@](C)(OC)[C@@H](O)[C@H](C)O2)[C@H](C)[C@@H](O[C@@H]2O[C@H](C)C[C@H](N(C)C)[C@H]2O)[C@](C)(O)C[C@@H](C)C(=O)[C@H](C)[C@@H](O)[C@]1(C)O` [erythromycin] as the molecule, how does the “effect on nanoluciferase translation in E. coli cell extracts” value [3] read?
A: Inhibition of nanoluciferase translation

Q: What about the fMet-puromycin formed (E. coli 70S ribosomes; first column (replicate 1)) of the same molecule?
A: 1468

Q: What about the fMet-puromycin formed (E. coli 70S ribosomes; second column (replicate 2)) of the same molecule?
A: 1479

Q: What about the “effect of erythromycin preincubation on inhibition by PR20” value (E. coli 70S ribosomes; 20 μM erythromycin, 2 μM PR20) of the same molecule?
A: prevents the inhibitory action of PR20

Q: With “GRKKRRQRRRPPQ [TAT, arginine-rich polypeptide]” as the molecule, how does the cell death [4] read?
A: not to cause translation inhibition or cell death

Q: And the translation inhibition (translation)?
A: not to cause translation inhibition

Q: Which apparent inhibition constant (Ki) of peptidyl transfer from [35S]-fMet-tRNAfMet to puromycin on E. coli 70S ribosomes [5] does the source give for “PR20 (poly-proline-arginine, 20 repeats) (peptide)” here?
A: 44 nM

Q: What about the concentration at which inhibition of peptidyl transfer to puromycin begins on purified rabbit 80S ribosomes [6] of the same molecule?
A: 100 nM

Q: And the IC50 of translation of nanoluciferase mRNA in 33% rabbit reticulocyte lysate [7]?
A: 325 nM

Q: What about the IC50 of translation of nanoluciferase mRNA in 50% rabbit reticulocyte lysate [7] of the same molecule?
A: 840 nM

Q: With “PR40 (poly-proline-arginine, 40 repeats) (peptide)” as the molecule, how does the apparent inhibition constant (Ki) of peptidyl transfer to puromycin on E. coli 70S ribosomes [5] read?
A: < 30 nM

Q: And the apparent inhibition constant (Ki) of peptidyl transfer to puromycin on purified rabbit 80S ribosomes [6]?
A: < 30 nM

Q: What does the source list for “RRRRNRTRRNRRRVR [FHV, arginine-rich polypeptide]”?
A: cell death [4]: not to cause translation inhibition or cell death; translation inhibition (translation): not to cause translation inhibition

Q: For “RRRRRRRRRRRR [R12, arginine-rich polypeptide]”, which cell death [4] is on record?
A: not to cause translation inhibition or cell death

Q: What about the translation inhibition (translation) of the same molecule?
A: not to cause translation inhibition
